Results on 43 molecules are retold here after ChEMBL document CHEMBL3352031, “Discovery of diamine-linked 17-aroylamido-17-demethoxygeldanamycins as potent Hsp90 inhibitors” (Eur J Med Chem, 2014).

The IC50 is the concentration needed to halve the response being measured. Low values mean higher potency, high ones lower potency.

Where only a bound is given, the exact number is not on record here.

In this assay the test system is MDA-MB-231. Nature of the assay: cells. The settings on record: Homo sapiens, MDA-MB-231, 72 h.
Description: Cytotoxicity against human MDA-MB-231 cells after 72 hrs by MTT assay
On to `CO[C@H]1/C=C\C=C(/C)C(=O)NC2=CC(=O)C(NCCCCCCNC(=O)c3cccnc3)=C(C[C@@H](C)C[C@H](OC)[C@H](O)[C@@H](C)/C=C(\C)[C@@H]1OC(N)=O)C2=O`, for which the IC50 was 500 nM.

With `CO[C@H]1/C=C\C=C(/C)C(=O)NC2=CC(=O)C(NCCCCCCNC(=O)c3cccs3)=C(C[C@@H](C)C[C@H](OC)[C@H](O)[C@@H](C)/C=C(\C)[C@@H]1OC(N)=O)C2=O`, the midpoint of inhibition, the IC50, lay at 3030 nM.

In the case of `CO[C@H]1/C=C\C=C(/C)C(=O)NC2=CC(=O)C(NCCCCCCNC(=O)/C=C/c3cccc(Cl)c3)=C(C[C@@H](C)C[C@H](OC)[C@H](O)[C@@H](C)/C=C(\C)[C@@H]1OC(N)=O)C2=O`, the IC50 is 5230 nM.

As to `CO[C@H]1/C=C\C=C(/C)C(=O)NC2=CC(=O)C(NCCCCNC(=O)/C=C/c3ccc(O)cc3)=C(C[C@@H](C)C[C@H](OC)[C@H](O)[C@@H](C)/C=C(\C)[C@@H]1OC(N)=O)C2=O`, the IC50 stood at 1660 nM.

Consider `CO[C@H]1/C=C\C=C(/C)C(=O)NC2=CC(=O)C(NCC3CCN(C(=O)c4ccccc4O)CC3)=C(C[C@@H](C)C[C@H](OC)[C@H](O)[C@@H](C)/C=C(\C)[C@@H]1OC(N)=O)C2=O`, for which the IC50 amounted to 1820 nM.

For `COc1ccccc1/C=C/C(=O)NCCCCCCNC1=C2C[C@@H](C)C[C@H](OC)[C@H](O)[C@@H](C)/C=C(\C)[C@H](OC(N)=O)[C@@H](OC)/C=C\C=C(/C)C(=O)NC(=CC1=O)C2=O`, the IC50 stood at 3320 nM.

The molecule `COc1ccc(/C=C/C(=O)NCCCCCCNC2=C3C[C@@H](C)C[C@H](OC)[C@H](O)[C@@H](C)/C=C(\C)[C@H](OC(N)=O)[C@@H](OC)/C=C\C=C(/C)C(=O)NC(=CC2=O)C3=O)cc1O` returned an IC50 of 1470 nM.

`CO[C@H]1/C=C\C=C(/C)C(=O)NC2=CC(=O)C(NCCCCNC(=O)c3nc(C)c(C)nc3C)=C(C[C@@H](C)C[C@H](OC)[C@H](O)[C@@H](C)/C=C(\C)[C@@H]1OC(N)=O)C2=O` registered an IC50 of 8450 nM.

Turning to `CO[C@H]1/C=C\C=C(/C)C(=O)NC2=CC(=O)C(NCCCCNC(=O)c3ccccn3)=C(C[C@@H](C)C[C@H](OC)[C@H](O)[C@@H](C)/C=C(\C)[C@@H]1OC(N)=O)C2=O`, the IC50 was determined as 3140 nM.

Turning to `CO[C@H]1/C=C\C=C(/C)C(=O)NC2=CC(=O)C(NCCCCCCNC(=O)c3ccc([N+](=O)[O-])cc3)=C(C[C@@H](C)C[C@H](OC)[C@H](O)[C@@H](C)/C=C(\C)[C@@H]1OC(N)=O)C2=O`, the IC50 is 2950 nM.

In turn, `CO[C@H]1/C=C\C=C(/C)C(=O)NC2=CC(=O)C(NCCCCCCNC(=O)c3ccc(I)cc3)=C(C[C@@H](C)C[C@H](OC)[C@H](O)[C@@H](C)/C=C(\C)[C@@H]1OC(N)=O)C2=O` returned an IC50 of 3960 nM. This IC50 and that of the molecule before are within 1.5-fold of each other.

`CO[C@H]1/C=C\C=C(/C)C(=O)NC2=CC(=O)C(NCC3CCN(C(=O)c4ccccn4)CC3)=C(C[C@@H](C)C[C@H](OC)[C@H](O)[C@@H](C)/C=C(\C)[C@@H]1OC(N)=O)C2=O` had an IC50 of 1120 nM.

In turn, `CO[C@H]1/C=C\C=C(/C)C(=O)NC2=CC(=O)C(NCCCCCCNC(=O)c3ccncn3)=C(C[C@@H](C)C[C@H](OC)[C@H](O)[C@@H](C)/C=C(\C)[C@@H]1OC(N)=O)C2=O` returned an IC50 of 920 nM.

For `CO[C@H]1/C=C\C=C(/C)C(=O)NC2=CC(=O)C(NCCCCCCNC(=O)/C=C/c3ccc(N(C)C)cc3)=C(C[C@@H](C)C[C@H](OC)[C@H](O)[C@@H](C)/C=C(\C)[C@@H]1OC(N)=O)C2=O`, it took 2110 nM to reach half-maximal inhibition (IC50).

`CO[C@H]1/C=C\C=C(/C)C(=O)NC2=CC(=O)C(NCCCCCCNC(=O)c3cncnc3)=C(C[C@@H](C)C[C@H](OC)[C@H](O)[C@@H](C)/C=C(\C)[C@@H]1OC(N)=O)C2=O` registered an IC50 of 1220 nM. Against the preceding molecule, the IC50 is about 1.7-fold lower.

Turning to `CO[C@H]1/C=C\C=C(/C)C(=O)NC2=CC(=O)C(NCCCCCCNC(=O)c3cncc(Br)c3)=C(C[C@@H](C)C[C@H](OC)[C@H](O)[C@@H](C)/C=C(\C)[C@@H]1OC(N)=O)C2=O`, the IC50 worked out at 2350 nM.

Molecule `CO[C@H]1/C=C\C=C(/C)C(=O)NC2=CC(=O)C(NCCCCCCNC(=O)/C=C/c3ccc(O)c(O)c3)=C(C[C@@H](C)C[C@H](OC)[C@H](O)[C@@H](C)/C=C(\C)[C@@H]1OC(N)=O)C2=O` registered an IC50 of 3930 nM.

For the molecule `CO[C@H]1/C=C\C=C(/C)C(=O)NC2=CC(=O)C(NCCCCCCNC(=O)/C=C/c3ccc(C(F)(F)F)cc3)=C(C[C@@H](C)C[C@H](OC)[C@H](O)[C@@H](C)/C=C(\C)[C@@H]1OC(N)=O)C2=O`, the IC50 was more than 10000 nM.

`COc1cc(/C=C/C(=O)NCCCCCCNC2=C3C[C@@H](C)C[C@H](OC)[C@H](O)[C@@H](C)/C=C(\C)[C@H](OC(N)=O)[C@@H](OC)/C=C\C=C(/C)C(=O)NC(=CC2=O)C3=O)cc(OC)c1` yielded an IC50 of 1700 nM. In other words, the single-digit micromolar range.

`CO[C@H]1/C=C\C=C(/C)C(=O)NC2=CC(=O)C(NCC3CCN(C(=O)c4ccncc4)CC3)=C(C[C@@H](C)C[C@H](OC)[C@H](O)[C@@H](C)/C=C(\C)[C@@H]1OC(N)=O)C2=O` had an IC50 of 2840 nM. This IC50 is about 1.7-fold higher than that of the molecule before.

With `CO[C@H]1/C=C\C=C(/C)C(=O)NC2=CC(=O)C(NCCCCCCNC(=O)c3cc(O)cc(O)c3)=C(C[C@@H](C)C[C@H](OC)[C@H](O)[C@@H](C)/C=C(\C)[C@@H]1OC(N)=O)C2=O`, the IC50 was determined as 4350 nM.

In turn, `CO[C@H]1/C=C\C=C(/C)C(=O)NC2=CC(=O)C(NCC3CCN(C(=O)c4cccnc4)CC3)=C(C[C@@H](C)C[C@H](OC)[C@H](O)[C@@H](C)/C=C(\C)[C@@H]1OC(N)=O)C2=O` registered an IC50 of 2030 nM.

With `CO[C@H]1/C=C\C=C(/C)C(=O)NC2=CC(=O)C(NCCCCCCNC(=O)/C=C/c3cccc([N+](=O)[O-])c3)=C(C[C@@H](C)C[C@H](OC)[C@H](O)[C@@H](C)/C=C(\C)[C@@H]1OC(N)=O)C2=O`, the midpoint of inhibition, the IC50, lay at 1020 nM.

In turn, `CO[C@H]1/C=C\C=C(/C)C(=O)NC2=CC(=O)C(NCCCCCCNC(=O)/C=C/c3ccc(C)cc3)=C(C[C@@H](C)C[C@H](OC)[C@H](O)[C@@H](C)/C=C(\C)[C@@H]1OC(N)=O)C2=O` showed an IC50 of 3960 nM. Compared with the last molecule, the IC50 is about 3.9-fold higher.

Take `COc1ccc(/C=C/C(=O)NCCCCCCNC2=C3C[C@@H](C)C[C@H](OC)[C@H](O)[C@@H](C)/C=C(\C)[C@H](OC(N)=O)[C@@H](OC)/C=C\C=C(/C)C(=O)NC(=CC2=O)C3=O)c(OC)c1OC`: the IC50 is 1860 nM.

On to `CO[C@H]1/C=C\C=C(/C)C(=O)NC2=CC(=O)C(NCCCCCCNC(=O)c3nc(C)c(C)nc3C)=C(C[C@@H](C)C[C@H](OC)[C@H](O)[C@@H](C)/C=C(\C)[C@@H]1OC(N)=O)C2=O`, for which the IC50 amounted to 3120 nM. Compared with the last molecule, the IC50 is about 1.7-fold higher.

In turn, `CO[C@H]1/C=C\C=C(/C)C(=O)NC2=CC(=O)C(NCCCCCCNC(=O)/C=C/c3ccc(O)cc3)=C(C[C@@H](C)C[C@H](OC)[C@H](O)[C@@H](C)/C=C(\C)[C@@H]1OC(N)=O)C2=O` registered an IC50 of 970 nM. This IC50 lies about 3.2-fold lower than the previous one.

In turn, `COc1cccc(/C=C/C(=O)NCCCCCCNC2=C3C[C@@H](C)C[C@H](OC)[C@H](O)[C@@H](C)/C=C(\C)[C@H](OC(N)=O)[C@@H](OC)/C=C\C=C(/C)C(=O)NC(=CC2=O)C3=O)c1OC` showed an IC50 of 6030 nM.

The molecule `CO[C@H]1/C=C\C=C(/C)C(=O)NC2=CC(=O)C(NCCCCCCNC(=O)c3ccccn3)=C(C[C@@H](C)C[C@H](OC)[C@H](O)[C@@H](C)/C=C(\C)[C@@H]1OC(N)=O)C2=O` yielded an IC50 of 1730 nM.

Molecule `CO[C@H]1/C=C\C=C(/C)C(=O)NC2=CC(=O)C(NCCCCCCNC(=O)c3ccncc3)=C(C[C@@H](C)C[C@H](OC)[C@H](O)[C@@H](C)/C=C(\C)[C@@H]1OC(N)=O)C2=O` came in with an IC50 of 890 nM.

For `COc1ccc(/C=C/C(=O)NCCCCCCNC2=C3C[C@@H](C)C[C@H](OC)[C@H](O)[C@@H](C)/C=C(\C)[C@H](OC(N)=O)[C@@H](OC)/C=C\C=C(/C)C(=O)NC(=CC2=O)C3=O)cc1`, the midpoint of inhibition, the IC50, lay at 4540 nM.

In turn, `CO[C@H]1/C=C\C=C(/C)C(=O)NC2=CC(=O)C(NCCCCCCNC(=O)/C=C/c3ccccc3)=C(C[C@@H](C)C[C@H](OC)[C@H](O)[C@@H](C)/C=C(\C)[C@@H]1OC(N)=O)C2=O` gave an IC50 of 5140 nM.

For the molecule `CO[C@H]1/C=C\C=C(/C)C(=O)NC2=CC(=O)C(NCCCCCCNC(=O)c3ccc(F)cc3)=C(C[C@@H](C)C[C@H](OC)[C@H](O)[C@@H](C)/C=C(\C)[C@@H]1OC(N)=O)C2=O`, the concentration for half-maximal inhibition (IC50) amounted to 4160 nM.

Take `CO[C@H]1/C=C\C=C(/C)C(=O)NC2=CC(=O)C(NCC3CCN(C(=O)/C=C/c4ccc(O)cc4)CC3)=C(C[C@@H](C)C[C@H](OC)[C@H](O)[C@@H](C)/C=C(\C)[C@@H]1OC(N)=O)C2=O`: 1680 nM corresponded to half-maximal inhibition (IC50).

For `CO[C@H]1/C=C\C=C(/C)C(=O)NC2=CC(=O)C(NCC3CCN(C(=O)c4cnc(C)c(C)n4)CC3)=C(C[C@@H](C)C[C@H](OC)[C@H](O)[C@@H](C)/C=C(\C)[C@@H]1OC(N)=O)C2=O`, the IC50 worked out at 2330 nM. The IC50 values of the last two molecules are within 1.5-fold of each other.

As to `CO[C@H]1/C=C\C=C(/C)C(=O)NC2=CC(=O)C(NCCCCCCNC(=O)c3ccccc3O)=C(C[C@@H](C)C[C@H](OC)[C@H](O)[C@@H](C)/C=C(\C)[C@@H]1OC(N)=O)C2=O`, half-maximal inhibition (IC50) required 6040 nM.

As to `CO[C@H]1/C=C\C=C(/C)C(=O)NC2=CC(=O)C(NCCCCCCNC(=O)/C=C/c3ccccc3C)=C(C[C@@H](C)C[C@H](OC)[C@H](O)[C@@H](C)/C=C(\C)[C@@H]1OC(N)=O)C2=O`, it took 6910 nM to reach half-maximal inhibition (IC50).

`CO[C@H]1/C=C\C=C(/C)C(=O)NC2=CC(=O)C(NCCCCCCNC(=O)/C=C/c3cccc(O)c3)=C(C[C@@H](C)C[C@H](OC)[C@H](O)[C@@H](C)/C=C(\C)[C@@H]1OC(N)=O)C2=O` had a half-inhibitory concentration (IC50) of 1240 nM. Compared with the last molecule, the IC50 is about 5.6-fold lower.

The molecule `CO[C@H]1/C=C\C=C(/C)C(=O)NC2=CC(=O)C(NCCCCCCNC(=O)c3ccccc3Cl)=C(C[C@@H](C)C[C@H](OC)[C@H](O)[C@@H](C)/C=C(\C)[C@@H]1OC(N)=O)C2=O` returned a 50% inhibitory concentration (IC50) of 3390 nM.

`COc1ccc(OC)c(/C=C/C(=O)NCCCCCCNC2=C3C[C@@H](C)C[C@H](OC)[C@H](O)[C@@H](C)/C=C(\C)[C@H](OC(N)=O)[C@@H](OC)/C=C\C=C(/C)C(=O)NC(=CC2=O)C3=O)c1` yielded an IC50 of 8150 nM.

In turn, `CO[C@H]1/C=C\C=C(/C)C(=O)NC2=CC(=O)C(NCCCCNC(=O)c3ccccc3O)=C(C[C@@H](C)C[C@H](OC)[C@H](O)[C@@H](C)/C=C(\C)[C@@H]1OC(N)=O)C2=O` gave an IC50 of 4900 nM.

For `CO[C@H]1/C=C\C=C(/C)C(=O)NC2=CC(=O)C(NCCCCCCNC(=O)c3ccc(Cl)cc3)=C(C[C@@H](C)C[C@H](OC)[C@H](O)[C@@H](C)/C=C(\C)[C@@H]1OC(N)=O)C2=O`, the IC50 was 4100 nM.

In turn, `CO[C@H]1/C=C\C=C(/C)C(=O)NC2=CC(=O)C(NCCCCCCNC(=O)/C=C/c3ccccc3[N+](=O)[O-])=C(C[C@@H](C)C[C@H](OC)[C@H](O)[C@@H](C)/C=C(\C)[C@@H]1OC(N)=O)C2=O` registered an IC50 of 1610 nM.
